This note sets out measurements from patent US20240417371A1, “CANNABIDIOL DERIVATIVE, AND PREPARATION METHOD THEREFOR AND USE THEREOF” (priority 2021, published 2024).

For data set [1], the system named is tyrosine hydroxylase (TH) cells in substantia nigra (SubN). Kind of data set: Tyrosine hydroxylase (TH) cells in substantia nigra (SubN) by immunohistochemistry. In kind it is in vivo, C57/BL6 mice. To be noted: MPTP mice, intragastric 100 mg/kg for 14 days (positive drug = amantadine 40 mg/kg). How it is done:
• (1) SPF-grade C57 mice aged 6-8 weeks were purchased and acclimatized for one week, and subsequently the modeling was started. • (2) MPTP (25 mg/kg) was intraperitoneally injected once a day for 7 consecutive days. The blank group was left untreated. • (3) After modeling, administration was started. […] The intragastric administration was performed once a day for 14 consecutive days. • (4) Behavioral test was first performed by balance beam test scoring.
5. Determination of Tyrosine Hydroxylase (TH) Cells in Substantia Nigra (SubN) by Immunohistochemistry
The tissue should be cut using sharp knives and scissors. When cutting a tissue mass, the tissue was cut by pulling backwards from the root of the knife. […] The prepared tissue mass was fixed in 10% formalin for 48 h.
The fixed tissue was washed with running water to remove residual fixing liquid and impurities. The tissue mass was dehydrated in stages with different concentrations of ethanol (50%, 70%, 85%, 95%, up to pure alcohol (absolute ethanol)), each stage for 2 h. Dehydration must be performed in a capped flask to prevent high concentrations of ethanol from absorbing moisture in the air, resulting in reduced concentrations and incomplete dehydration. The material to be preserved can remain in 70% ethanol when being dehydrated with it. For long-term preservation, an equivalent amount of glycerol can be added. […]

A further data set relates to glutamic acid. Kind of data set: Content of glutamic acid in homogenate of brain tissues of rats (kit method). It counts as in vivo, Wistar rats. To be noted: PTZ rats after 14 days, 100 mg/kg intragastric (positive drug = valproate). As for the experimental part:
(§1) 5. Determination of Contents of γ-Aminobutyric Acid, Glutamic Acid, Glycine, and Aspartic Acid in Rat Brain Tissue by the Kit Method
(§2) The experimental procedures and methods were referred to the kit instructions.
(§3) The contents of excitatory amino acids (glutamic acid and aspartic acid) and inhibitory neurotransmitters (γ-aminobutyric acid and glycine) in the homogenate of brain tissues were determined by an ELISA kit.

The next data set has as its system glycine. In words: Content of glycine in homogenate of brain tissues of rats (kit method). In kind it is in vivo, Wistar rats. To be noted: PTZ rats after 14 days, 100 mg/kg intragastric (positive drug = valproate). As for the experimental part: as §1, §2, §3
In data set [2] the test system is PTZ-kindling epileptic rats. In words: PTZ-kindling epilepsy model: seizure duration, Ono's grade, latency. It counts as in vivo, Wistar rats. As for the experimental part: Wistar rats, SPF grade, weighing 240-260 g, aged 6-8 weeks, female, purchased from Shanghai Slac Laboratory Animal Co., Ltd. Feeding environment: the temperature was kept at 22±1° C., and the humidity was kept at 65%-70%, in a 12/12 hour light/dark illumination cycle, with free access to water.
After 1 week of acclimatization of all rats, modeling was started. A 1.75% PTZ solution was prepared with normal saline, and the prepared PTZ solution was injected intraperitoneally at a dose of 35 mg/kg. PTZ was injected once every other day, and behavioral changes of the rats were observed within 30 min after the PTZ injection, and the seizure grade was recorded.
During the experiment, after 11 consecutive injections of PTZ, the seizure grade was recorded. All rats had 5 consecutive recordings of grade 2 or above, and modeling for all rats was successful after 11 consecutive injections of PZT into all rats.
After the modeling was successful, the rats were randomly grouped. Treatment was started. All Wistar rats were weighed and doses for the intragastric administration were calculated.
Before the administration and on day 7 and day 14 after the administration, the prepared PTZ solution was injected intraperitoneally at a dose of 35 mg/kg 1 h after intragastric administration. Behavioral changes of the rats were observed within 30 min after the PTZ injection.
Behavioral seizure indexes before and after the administration were recorded and graded according to Ono's grading. The seizure latency, seizure grade and seizure duration were recorded.

For another data set, the system named is dopamine. In words: Content of dopamine in striatum of the model of Parkinson's disease (kit method). Conditions: MPTP mice; intragastric 100 mg/kg for 14 days (positive drug = amantadine 40 mg/kg). It counts as in vivo, C57/BL6 mice. An excerpt: After the mice were sacrificed quickly, the brains of the mice were taken and the cerebral palliums (CPs) of the mice were isolated. After exposing the brain striatum of the mice, the striatum was weighed and homogenized after adding PBS according to a proportion. The supernatant was isolated and detected for the content of dopamine in the brain striatum.

The next data set in a line: Solubility in water. It counts as physicochemical. An excerpt: ^1[…]=0.8 Hz, 1[…]=7.6 Hz, 2[…]=6.8 Hz, 3H).

Turning to `C=C(C)[C@@H]1CCC(C)=C[C@H]1c1c(O)cc(CCCCC)cc1OCC(=O)N[C@@H](CCSC)C(=O)[O-].[Na+]` [Compound E1], in data set [1], the “TH cell positive rate” value stood at 16.92 ± 3.13 %. The Glutamic acid with glutamic acid was determined as 0.14 ± 0.02 µmol/mg. Also, the Glycine in the data set on glycine worked out at 0.67 ± 0.07 ng/µg. In addition, the “Ono's grade before treatment” value in data set [2] (grade 0-6 (Table 1), baseline before treatment) was 3.17 ± 0.41. Also, in data set [2] (grade 0-6, intragastric 100 mg/kg (positive drug = valproate), day 7), the “Ono's grade on day 7 of treatment” value came out at 3.33 ± 0.52. In addition, in data set [2] (grade 0-6, intragastric 100 mg/kg (positive drug = valproate), day 14), the “Ono's grade on day 14 of treatment” value is listed as 3.33 ± 0.52. The “Duration on day 7 of treatment” value in data set [2] (intragastric 100 mg/kg (positive drug = valproate 100 mg/kg), PTZ 35 mg/kg i.p. 1 h after administration, day 7) is listed as 290.50 ± 66.93 s. Moreover, the “Duration on day 14 of treatment” value in data set [2] (intragastric 100 mg/kg (positive drug = valproate 100 mg/kg), PTZ 35 mg/kg i.p. 1 h after administration, day 14) turned out to be 299.67 ± 39.25 s. In data set [2] (intragastric 100 mg/kg (positive drug = valproate), day 7), the “Latency on day 7 of treatment” value was determined as 82.83 ± 20.90 s. The “Latency on day 14 of treatment” value in data set [2] (intragastric 100 mg/kg (positive drug = valproate), day 14) is 87.00 ± 20.96 s. Further, the “change in duration of seizure on day 14 as compared to day 7 of treatment” value in data set [2] (intragastric 100 mg/kg, PTZ-kindling rats) is listed as “no change in the duration of seizure”. In addition, in data set [2] (latency to seizure after PTZ 35 mg/kg i.p., baseline before treatment), the Latency before treatment turned out to be 85.75 ± 21.45 s. In addition, the Duration before treatment in data set [2] (seizure duration after PTZ 35 mg/kg i.p., baseline before treatment) was 359.83 ± 14.41 s. In addition, in the data set with dopamine, the “DA, content of dopamine in striatum after treatment” value was 0.45 ± 0.09 # ng/mg. Further, the solubility (as a rule, the dissolved amount per volume that the medium holds) in “Solubility in water” was 27 mg/mL.
